Reference: patent US10174009B2, “Tricyclic sulphonamide compounds and methods of making and using same” (Zafgen, Inc., priority 2012, dated 2019)

biological target: T1, recombinant human MetAP2 (Homo sapiens, UniProt P50579); test: Inhibition of recombinant human MetAP2 activity (MAS substrate, amino acid oxidase/Amplex red fluorescence); assay type: biochemical; details: manganese enzyme, 30 minutes at 25° C., pH 7.5, 0.75 mM MAS substrate, 1% DMSO
T1 construct: made in house; host or cells: Sf9 insect cells
T1 sequence (P50579 whole entry): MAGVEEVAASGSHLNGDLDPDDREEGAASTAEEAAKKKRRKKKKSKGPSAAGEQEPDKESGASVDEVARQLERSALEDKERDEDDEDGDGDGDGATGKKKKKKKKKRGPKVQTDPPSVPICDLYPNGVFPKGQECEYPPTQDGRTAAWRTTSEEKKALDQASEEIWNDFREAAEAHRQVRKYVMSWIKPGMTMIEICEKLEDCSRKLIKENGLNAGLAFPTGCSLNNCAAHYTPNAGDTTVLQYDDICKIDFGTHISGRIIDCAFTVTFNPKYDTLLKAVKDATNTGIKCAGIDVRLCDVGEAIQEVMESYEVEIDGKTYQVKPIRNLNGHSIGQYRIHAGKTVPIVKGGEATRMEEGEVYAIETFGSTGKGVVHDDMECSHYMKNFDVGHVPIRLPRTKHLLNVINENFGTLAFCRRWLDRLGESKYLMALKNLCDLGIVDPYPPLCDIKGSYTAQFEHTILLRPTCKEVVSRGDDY
Procedure: Compounds are tested for their capacity to inhibit recombinant human MetAP2 activity using the following assay.
Human recombinant MetAP2 expressed in Sf9 cells followed by affinity purification and EDTA treatment to remove endogenous active site cation was dialysed against MnCl2 to produce the manganese enzyme used in the assay. The assay was carried out for 30 minutes at 25° C. in 50 mM HEPES buffer containing 100 mM NaCl, pH 7.5 the presence of 0.75 mM Methionine-Alanine-Serine (MAS) substrate and 50 μg/ml amino acid oxidase using a dilution of purified MetAP2 giving >3-fold signal:noise. Cleavage of the substrate by MetAP2 and oxidation of free methionine by amino acid oxidase was detected and quantified using fluorescence generated by Amplex red (10-acetyl-3,7-dihydroxyphenoxazine) in combination with horseradish peroxidase which detects H2O2 released during the oxidation step. The fluorescent signal was detected using a multiwell fluorimeter. Compounds were diluted in DMSO prior to addition to assay buffer, the final DMSO concentration in the assay being 1%.
The IC50 is defined as the concentration at which a given compound achieves 50% inhibition of control. IC50 values are calculated using the XLfit software package (version 2.0.5).

Going from `CCN(CC)CCCc1cc(F)ccc1S(=O)(=O)Nc1cc(F)c2c(c1C(=O)O)OCC1CC21` (racemic) [(1aRS,7bSR)-5-[2-(3-Diethylaminopropyl)-4-fluorobenzenesulfonylamino]-7-fluoro-1,1a,2,7b-tetrahydrocyclopropa[c]chromene-4-carboxylic acid] to `CCN(CC)C/C=C\c1cc(F)ccc1S(=O)(=O)Nc1cc(F)c2c(c1C(=O)O)OCC1CC21` (racemic) [(1aRS,7bSR)-5-[2-((Z)-3-Diethylaminoprop-1-enyl)-4-fluorobenzenesulfonyl-amino]-7-fluoro-1,1a,2,7b-tetrahydrocyclopropa[c]chromene-4-carboxylic acid], the IC50 falls from over 50 nM to under 50 nM.

Going from `CCN1CC[C@@H](Cc2cc(F)ccc2S(=O)(=O)Nc2cc(F)c3c(c2C(=O)O)OCC2CC32)C1` (mixture of isomers) [(1aRS,7bSR)-5-[2-((R)-1-Ethylpyrrolidin-3-ylmethyl)-4-fluorobenzene-sulfonylamino]-7-fluoro-1,1a,2,7b-tetrahydrocyclopropa[c]chromene-4-carboxylic acid] to `CCN(CC)C/C=C\c1cc(F)ccc1S(=O)(=O)Nc1c(F)cc2c(c1C(=O)O)OCC1CC21` (racemic) [(1aRS,7bSR)-5-[2-((Z)-3-Diethylaminoprop-1-enyl)-4-fluorobenzene-sulfonylamino]-6-fluoro-1,1a,2,7b-tetrahydrocyclopropa[c]chromene-4-carboxylic acid], the IC50 rises from under 50 nM to over 50 nM. The first is the more potent here.
